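Dose response: 5 concentrations. Exposure: 48 h. Format: 96-well plates. Endpoint: linear interpolation; highest concentration if not reached. GI50 is the concentration that inhibits growth by half.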 The source made the active and inactive calls. Cut-off read from the data, not from the text of the source: active = GI50 up to about 1.1 µM and inactive = higher.
Legend:
Assay in all cases: NCI-60 cell line screen, 48 h
[1] = tested on: 786-0
[2] = tested on: HCC 2998
[3] = tested on: RXF 393
[4] = tested on: MDA-MB-435
[5] = tested on: MOLT-4
[6] = tested on: UACC-62
[7] = tested on: U-251
[8] = tested on: A549
[9] = tested on: BT-549
[10] = tested on: Malme-3M
[11] = tested on: OVCAR-8
[12] = tested on: M14
[13] = tested on: HT-29
[14] = tested on: CCRF-CEM
[15] = tested on: MDA-MB-231
[16] = tested on: OVCAR-5
[17] = tested on: SNB-19
[18] = tested on: K562
[19] = tested on: A498
[20] = tested on: SNB-75
[21] = tested on: MDA-N
[22] = tested on: HCT-116
[23] = tested on: SK-MEL-28
[24] = tested on: UACC-257
[25] = tested on: NCI-H226
[26] = tested on: HCT-15
[27] = tested on: SF-539
[28] = tested on: HOP-92
[29] = tested on: PC-3
[30] = tested on: NCI-H522
[31] = tested on: NCI/ADR-RES
[32] = tested on: IGROV-1
[33] = tested on: SF-268
[34] = tested on: NCI-H460
[35] = tested on: SW-620
[36] = tested on: Hs-578T
[37] = tested on: DU-145
[38] = tested on: ACHN
[39] = tested on: SR
[40] = tested on: TK-10
[41] = tested on: LOX IMVI
[42] = tested on: OVCAR-4
[43] = tested on: SF-295
[44] = tested on: SK-MEL-5
[45] = tested on: SK-OV-3
[46] = tested on: SK-MEL-2
[47] = tested on: SN12C
[48] = tested on: CAKI-1
[49] = tested on: RPMI-8226
[50] = tested on: COLO 205
[51] = tested on: MCF7
[52] = tested on: KM12
[53] = tested on: EKVX
[54] = tested on: OVCAR-3
[55] = tested on: HL-60
[56] = tested on: T47D
[57] = tested on: NCI-H23
[58] = tested on: HOP-62
[59] = tested on: UO-31

Cc1ccc(S(=O)(=O)ON2C(=O)c3c(N)c(C#N)c(-c4ccccc4)c(-c4ccccc4)c3C2=O)cc1
GI50 [1]: 15.8 µM (inactive)
GI50 [2]: 31.2 µM (inactive)
GI50 [3]: 10.4 µM (inactive)
GI50 [4]: 9.77 µM (inactive)
GI50 [5]: 10.2 µM (inactive)
GI50 [6]: 17.1 µM (inactive)
GI50 [7]: 16.2 µM (inactive)
GI50 [8]: 19.4 µM (inactive)
GI50 [9]: 13.1 µM (inactive)
GI50 [10]: 21.5 µM (inactive)
GI50 [11]: 17.6 µM (inactive)
GI50 [12]: 13.6 µM (inactive)
GI50 [13]: 19.1 µM (inactive)
GI50 [14]: 3.16 µM (inactive)
GI50 [15]: 19.3 µM (inactive)
GI50 [16]: 18 µM (inactive)
GI50 [17]: 24 µM (inactive)
GI50 [18]: 6.41 µM (inactive)
GI50 [19]: 20 µM (inactive)
GI50 [20]: 36.4 µM (inactive)
GI50 [21]: 16.4 µM (inactive)
GI50 [22]: 14.6 µM (inactive)
GI50 [23]: 15.2 µM (inactive)
GI50 [24]: 18.6 µM (inactive)
GI50 [25]: 15.9 µM (inactive)
GI50 [26]: 17.2 µM
GI50 [27]: 21.6 µM (inactive)
GI50 [28]: 21.6 µM (inactive)
GI50 [29]: 15.7 µM (inactive)
GI50 [30]: 15.6 µM (inactive)
GI50 [31]: 23.4 µM (inactive)
GI50 [32]: 15.8 µM (inactive)
GI50 [33]: 34.3 µM (inactive)
GI50 [34]: 35.6 µM (inactive)
GI50 [35]: 14.6 µM (inactive)
GI50 [36]: 71.3 µM (inactive)
GI50 [37]: 25.9 µM (inactive)
GI50 [38]: 16.4 µM (inactive)
GI50 [39]: 8.39 µM (inactive)
GI50 [40]: 17.3 µM (inactive)
GI50 [41]: 15.8 µM (inactive)
GI50 [42]: 21.9 µM (inactive)
GI50 [43]: 20 µM (inactive)
GI50 [44]: 17.1 µM (inactive)
GI50 [45]: 16.2 µM (inactive)
GI50 [46]: 17.1 µM (inactive)
GI50 [47]: 18.1 µM (inactive)
GI50 [48]: 16 µM (inactive)
GI50 [49]: 11.1 µM (inactive)
GI50 [50]: 17.3 µM (inactive)
GI50 [51]: 16 µM (inactive)
GI50 [52]: 51.1 µM (inactive)
GI50 [53]: 14.6 µM (inactive)
GI50 [54]: 13.6 µM (inactive)
GI50 [55]: 2.7 µM (inactive)
GI50 [56]: 18.2 µM (inactive)

CCOc1cc(NC(C)=O)ccc1C(=O)NN1C(=O)C(Oc2ccccc2)C1c1ccccc1 (centres undefined)
GI50 [1]: > 100 µM (inactive)
GI50 [2]: > 100 µM (inactive)
GI50 [3]: 70.5 µM (inactive)
GI50 [4]: > 100 µM (inactive)
GI50 [5]: 1.77 µM (inactive)
GI50 [6]: 45 µM (inactive)
GI50 [9]: > 100 µM (inactive)
GI50 [10]: 52.5 µM (inactive)
GI50 [11]: > 100 µM (inactive)
GI50 [13]: > 100 µM (inactive)
GI50 [14]: 28.6 µM (inactive)
GI50 [15]: > 100 µM (inactive)
GI50 [16]: > 100 µM (inactive)
GI50 [57]: > 100 µM (inactive)
GI50 [18]: 49.5 µM (inactive)
GI50 [19]: 45.4 µM (inactive)
GI50 [20]: 92.3 µM (inactive)
GI50 [21]: > 100 µM (inactive)
GI50 [22]: 94.4 µM (inactive)
GI50 [23]: > 100 µM (inactive)
GI50 [24]: > 100 µM (inactive)
GI50 [25]: 57.8 µM (inactive)
GI50 [26]: > 100 µM
GI50 [27]: 78 µM (inactive)
GI50 [28]: > 100 µM (inactive)
GI50 [29]: > 100 µM (inactive)
GI50 [30]: > 100 µM (inactive)
GI50 [31]: > 100 µM (inactive)
GI50 [32]: > 100 µM (inactive)
GI50 [33]: > 100 µM (inactive)
GI50 [58]: > 100 µM (inactive)
GI50 [34]: 15.3 µM (inactive)
GI50 [35]: > 100 µM (inactive)
GI50 [36]: > 100 µM (inactive)
GI50 [37]: > 100 µM (inactive)
GI50 [38]: 26.5 µM (inactive)
GI50 [39]: 4.15 µM (inactive)
GI50 [40]: > 100 µM (inactive)
GI50 [41]: 85.3 µM (inactive)
GI50 [42]: > 100 µM (inactive)
GI50 [43]: 57.8 µM (inactive)
GI50 [44]: 42.8 µM (inactive)
GI50 [45]: > 100 µM (inactive)
GI50 [46]: > 100 µM (inactive)
GI50 [47]: > 100 µM (inactive)
GI50 [48]: 52.4 µM (inactive)
GI50 [49]: 35.9 µM (inactive)
GI50 [50]: 71.9 µM (inactive)
GI50 [51]: 15.1 µM (inactive)
GI50 [52]: > 100 µM (inactive)
GI50 [53]: > 100 µM (inactive)
GI50 [54]: > 100 µM (inactive)
GI50 [55]: 25.9 µM (inactive)
GI50 [56]: 44.4 µM (inactive)

Oc1c(CN2CCCC2)ccc2cccnc12
GI50 [1]: 17.9 µM (inactive)
GI50 [2]: > 47.4 µM (inactive)
GI50 [3]: > 67.9 µM (inactive)
GI50 [4]: 38.9 µM (inactive)
GI50 [5]: 20.1 µM (inactive)
GI50 [6]: 26.2 µM (inactive)
GI50 [7]: 16.2 µM (inactive)
GI50 [8]: 22.6 µM (inactive)
GI50 [9]: 46.1 µM (inactive)
GI50 [10]: 25.1 µM (inactive)
GI50 [11]: 11 µM (inactive)
GI50 [12]: 15.7 µM (inactive)
GI50 [13]: 27.5 µM (inactive)
GI50 [14]: 8.77 µM (inactive)
GI50 [15]: 51.3 µM (inactive)
GI50 [16]: 31.6 µM (inactive)
GI50 [17]: 18.3 µM (inactive)
GI50 [57]: 27 µM (inactive)
GI50 [18]: > 33.5 µM (inactive)
GI50 [19]: 29.9 µM (inactive)
GI50 [20]: 37.5 µM (inactive)
GI50 [21]: 39.4 µM (inactive)
GI50 [22]: 14.1 µM (inactive)
GI50 [23]: 22.5 µM (inactive)
GI50 [24]: 29.3 µM (inactive)
GI50 [25]: 21.5 µM (inactive)
GI50 [26]: 2.84 µM
GI50 [27]: 24 µM (inactive)
GI50 [28]: 26.4 µM (inactive)
GI50 [29]: > 39.5 µM (inactive)
GI50 [30]: 27.6 µM (inactive)
GI50 [31]: 2.38 µM (inactive)
GI50 [32]: 18.8 µM (inactive)
GI50 [33]: 24 µM (inactive)
GI50 [58]: 13.3 µM (inactive)
GI50 [34]: 20.3 µM (inactive)
GI50 [35]: 24.2 µM (inactive)
GI50 [36]: > 83.4 µM (inactive)
GI50 [37]: 23.2 µM (inactive)
GI50 [38]: 3.55 µM (inactive)
GI50 [39]: 12.2 µM (inactive)
GI50 [40]: 12.4 µM (inactive)
GI50 [41]: 15.5 µM (inactive)
GI50 [42]: 14.9 µM (inactive)
GI50 [43]: 13 µM (inactive)
GI50 [44]: 12.7 µM (inactive)
GI50 [45]: 25.9 µM (inactive)
GI50 [59]: 3.44 µM (inactive)
GI50 [46]: > 47 µM (inactive)
GI50 [47]: 19.3 µM (inactive)
GI50 [48]: 6.04 µM (inactive)
GI50 [49]: 16.7 µM (inactive)
GI50 [50]: 25.9 µM (inactive)
GI50 [51]: 29.6 µM (inactive)
GI50 [52]: 24.8 µM (inactive)
GI50 [53]: 12.3 µM (inactive)
GI50 [54]: 23.9 µM (inactive)
GI50 [55]: 4.94 µM (inactive)
GI50 [56]: 23 µM (inactive)
